# Laboratory results from ChEMBL document CHEMBL3880431, “Heme oxygenase inhibitors, screening methods for heme oxygenase inhibitors and methods of use of heme oxygenase inhibitors for antimicrobial therapy” (2013).
# Assay: Lipophilicity, log P of the compound
# Assay type: physicochemical
# Settings: octanol/water; read-out: logP
row,Structure (SMILES),logP
1,Nc1nnc(CCN2C(=O)c3ccccc3C2=O)s1,1.39
2,Cc1cc(C(=O)O)nn1-c1ccccc1,1.47
3,O=C(c1ccccc1O)c1[nH]ncc1[N+](=O)[O-],1.6
4,NC(=O)C1=NC(c2cccnc2)=NC1=O,-1.12
5,NC(=O)CNC(=O)Cc1ccccc1,0.06
6,C1CN2CCC1/C(=N\Nc1nnn[nH]1)C2,1.56
7,O=C(O)c1ccc(Cc2ccccc2)o1,2.22
8,COc1ccc(NC(=O)CSc2nnc(C)n2-c2ccc(C)cc2)cc1,3.95
9,NC(=O)NNC1CC(=O)N(c2ccc(F)cc2)C1=O (centres undefined),-0.43
10,COc1ccc(CNC(=N)NC(=N)N)cc1,1.46
11,O=C(O)c1ccccc1-c1nc(O)c2ccccc2n1,2.25
12,O=C(CC1NCCNC1=O)NCc1ccccc1 (centres undefined),-0.2
13,Cc1cccc2c(CCN)c[nH]c12,1.9
14,Cc1nc(NCCCC(=O)O)c2ccccc2n1,1.38
15,Cc1ccc(O)c(/C=N/c2cccc(C(=O)O)c2)c1,3.28
16,O=C(Cc1ccc(F)cc1)NNC(=O)Cn1cnnn1,-0.66
17,c1ccc2[nH]c(Cc3ccncc3)nc2c1,2.14
18,Nc1cc2nc3ccccc3nc2cc1N,1.66
19,Nc1nonc1-c1nc2ccccc2n1CC(=O)O,1.08
20,NCCNc1nc(-c2ccccc2)nnc1-c1ccc(Cl)cc1,3.6

row,Structure (SMILES),logP
1,NCc1ccc2c3c(cccc13)C(=O)N2,1.36
2,[O-][NH+]1C=CC=C/C1=C1\C=CC=C[NH+]1[O-] (centres undefined),1.95
3,Cc1cc(-c2ccc(F)cc2)nc2cc(C(=O)O)nn12,2.08
4,O=C(O)Cc1c(O)c2c(c(O)c1Cl)C(=O)c1ccccc1C2=O,2.69
5,COC(=O)c1ccc(/C=N/n2cnnc2)cc1,1.55
6,c1cncc(CNCc2cccnc2)c1,1.01
7,NC(=O)c1ccc[n+](-c2ccccc2)c1,2.15
8,c1ccc2c(c1)n[n+]1c3ccccc3[n-]n21,2
9,COc1ccc2[nH]c(SCC(N)=O)nc2c1,1.01
10,NS(=O)(=O)c1ccc2c(N=O)c(O)ccc2c1,1.3
11,N#Cc1ccc[n+](Cc2cc(=O)[nH]c(=O)[nH]2)c1,0.38
12,O=C1Nc2ccccc2Nc2ccccc21,2.27
13,Cn1c(=O)c(CC(=O)C(=O)O)nc2ccccc21,-0.29
14,N#CCCNCc1cccnc1,0.03
15,NCCCNc1ccc([N+](=O)[O-])c(N)c1,0.38
16,O=C(O)CSc1nc(O)c2ccccc2n1,1.34
17,Cc1ccc(Nc2n[nH]c(N=CNO)n2)cc1C,2.07
18,O=C(O)C(O)c1cccc([N+](=O)[O-])c1 (centres undefined),0.98
19,O=C(O)c1cnc2c(ccc3ccccc32)c1O,1.87
20,Cc1nccn1S(=O)(=O)c1ccc(F)cc1,0.89

row,Structure (SMILES),logP
1,NC1=N[NH+]([O-])c2ccccc2[NH+]1[O-] (centres undefined),1.22
2,CCOc1ccc(Nc2nc(CC(=O)O)cs2)cc1,2.29
3,O=C(Oc1ccc(S(=O)(=O)c2ccc(OC(=O)c3ccco3)cc2)cc1)c1ccco1,3.38
4,CNCc1ccccc1Sc1cccc(OC)c1,3.92
5,C=CCNc1nc(-c2cccs2)c(CC(=O)O)s1,2.29
6,O=c1nc2oc3cc(O)ccc3cc-2c(=O)[nH]1,1.25
7,Nc1nnc(-c2cc3ccc(O)cc3oc2=O)s1,2.05
8,NCc1ccccn1,-0.11
9,Cc1nonc1NC(=O)CN1CCN(C)CC1,-1.04
10,COc1ccc(C(N)Cc2cnc[nH]2)cc1 (centres undefined),0.81
11,NCC(=O)N(O)Cc1ccccc1,0.19
12,NC(=O)c1nnn2c1nc(N)c1cc(Cl)ccc12,-0.14
13,O=C(O)CNS(=O)(=O)c1ccc(F)cc1,0.66
14,O=C1CN=C(Nc2nc3ccccc3o2)N1,0.62
15,O=C(O)CSc1cccc2ccccc12,3.22
16,N=C1S/C(=C\c2ccccc2)C(=O)N1c1nonc1N,2.4
17,O=C(Cn1ncc2cc([N+](=O)[O-])ccc21)NCc1ccco1,0.92
18,Nn1c(=O)[nH]c2c([nH]c3ccccc32)c1=O,0.26
19,COc1ccc(C(=O)n2nnc3ccccc32)cc1,2.77
